These results are taken from US5843992A, “Epoxysuccinic acid derivatives” (Nippon Chemiphar Co., Ltd., priority 1995, dated 1998).

Where two headings read alike, the source gives them in different places.

Assay [1] has as its target T1, cathepsin B (Rattus norvegicus, UniProt P00787).
T1 construct: Preparation of Rat Liver Lysosome Fraction; from tissue; host or cells: rat liver lysosome fraction (male Wistar rat)
Put plainly: Cathepsin B inhibitory action (lysosome fraction, Z-Arg-Arg-MCA). The format is biochemical, rat (Wistar). The following applies: pH 6.0, 30° C.; read-out: Cathepsin B Inhibition (IC50). The method, then: Male rat of Wistar strain was killed by exsangulnation and a ice-chilled physiological saline was introduced into portal vein for circulation. Then, its liver was taken out. Thereafter, the following procedures were performed at 4° C.
The liver was minced by scissors. Five grams of minced liver were homogenized in a Potter type Teflon Homogenizer after addition of 0.25M aqueous sucrose solution in a volume as much as nine times. The homogenized mixture was centrifuged for 10 minutes at 800 G. The resulting supernatant was further centrifuged at 12,000 G for 20 minutes. The precipitate was homogenized in 25 mL of 0.25M aqueous sucrose solution, and then centrifuged for 20 minutes at 12,000 G. The resulting precipitate was further homogenized after 100 mL of 0.25M aqueous sucrose solution. Thus, a lysosome fraction was obtained.
To 0.25 mL of a solution (pH: 6.0) containing 352 mM KH2 PO4, 48 mM Na2 HPO4, 5.32 mM EDTA.2 Na and 10 mM L-cysteine were added 0.1 mL of the lysosome fraction, 5 μL of the test compound solution, and 0.545 mL of distilled water. The mixture was preincubated at 30° C. for 15 minutes. Thereafter, the reaction was started by the addition of 0.1 mL of a solution of 50 μM carbobenzoxy-L-arginine-L-arginine-4-methylcoumaryl-7-amide (Z-Arg-Arg-MCA, substrate). The reaction was performed at 30° C. for 20 minutes, and then terminated by addition of 1 mL of an aqueous solution (pH: 4.3) containing 100 mM sodium monochloroacetate, 30 mM sodium acetate and 70 mM acetic acid. The finally obtained solution was subjected to measurement of fluorescence strength (excitation wavelength: 380 nm, emission wavelength: 460 nm).

The subject of assay [2] is ICR mouse calvaria (bone resorption). The experiment in a line: Bone resorption inhibitory activity (PTH-stimulated calcium release from mouse calvaria). It is filed as cell-based. The following applies: read-out: Bone Resorption Inhibition, inhibition ratio (%). Here is the method: From ICR mouse (age: 6 to 7 days), calvaria was taken under aseptic conditions. The calvaria was divided along the median line into two parts after its connective tissue was removed. In a culture medium (modified BGjb medium, containing 5% inactivated bovine fetal serum) in an amount of 1 mL per a pair of bones, a pre-culture was performed for 24 hours under the conditions of 5% CO2 and 37° C. After the pre-culture was complete, each one of bone was placed in 0.5 mL of the same culture medium containing the test compound of different concentration, and cultured for 72 hours in the presence of 3×10^-7 M parathyroid hormone (PTH). For the control, culture was performed in the same manner except for using neither test compound nor PTH.
After the culture was complete, the amount of calcium released in the supernatant of the culture medium in the 72 hour culture as well as the amount of calcium contained in the bone (dissolved in 1 mL of 6N hydrochloric acid) were determined by ortho-cresol phthalein complexon (OCPC) method.
The calcium release ratio (%) was calculated according to the following equation: [formula]
The inhibition ratio (%) of bone resorption by the test compound was calculated according to the following equation: [formula]

Assay [3] has as its target cathepsin L (Rattus norvegicus, UniProt P07154). The experiment in a line: Cathepsin L inhibitory action (rat liver lysosome fraction, Z-Phe-Arg-MCA). It is filed as biochemical, rat (Wistar). The following applies: pH 5.5, 30° C., in the presence of 10^-7 M CA-074; read-out: Cathepsin L Inhibition IC50.
The target of assay [4] is T1, cathepsin B. The following applies: 10^-7 M CA-074, pH 5.5, Z-Phe-Arg-MCA; cited from earlier work.
Setting [5] is: Concentration of Test Comp. 10^-4 M, 72 hours, 3×10^-7 M PTH.
Where [6] appears, read: Concentration of Test Comp. 10^-5 M, 72 hours, 3×10^-7 M PTH.
[7] abbreviates: Concentration of Test Comp. 10^-6 M, 72 hours, 3×10^-7 M PTH.

cathepsin L, sequence (P07154 114-334): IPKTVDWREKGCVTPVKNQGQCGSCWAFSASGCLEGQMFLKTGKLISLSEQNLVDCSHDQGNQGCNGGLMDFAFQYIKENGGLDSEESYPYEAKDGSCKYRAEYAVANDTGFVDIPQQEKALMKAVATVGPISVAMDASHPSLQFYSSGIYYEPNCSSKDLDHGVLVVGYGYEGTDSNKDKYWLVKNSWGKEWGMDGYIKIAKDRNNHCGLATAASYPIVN
T1 sequence (P00787 80-339): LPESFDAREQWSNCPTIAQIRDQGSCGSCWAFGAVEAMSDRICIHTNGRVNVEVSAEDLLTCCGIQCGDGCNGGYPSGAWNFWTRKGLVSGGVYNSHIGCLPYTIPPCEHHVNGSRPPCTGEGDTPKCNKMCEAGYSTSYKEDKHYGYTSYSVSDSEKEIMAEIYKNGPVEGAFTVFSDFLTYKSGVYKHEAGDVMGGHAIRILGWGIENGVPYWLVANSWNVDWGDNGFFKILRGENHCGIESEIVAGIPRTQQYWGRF

Take `O=C(O)[C@H]1O[C@@H]1C(=O)NC(Cc1ccccc1)Cc1ccccc1`: the half-inhibitory concentration (IC50) in assay [1] turned out to be 200 nM.
Consider `O=C(O)[C@H]1O[C@@H]1C(=O)NC(c1ccccc1)c1ccccc1`, for which, in assay [2] (72 h), the inhibition at 1 µM was 90%, the inhibition at 10 µM amounted to 82% and the inhibition at 100 µM is 95%. In addition, the 50% inhibitory concentration (IC50) in assay [3] was 240 nM. Also, in assay [1], the IC50 is 230 nM.
Turning to `CC(C)CCC(CCC(C)C)NC(=O)[C@H]1O[C@@H]1C(=O)O`, in assay [2] (72 h), the inhibition at 1 µM worked out at 63%, the inhibition at 10 µM was 87% and the inhibition at 100 µM worked out at 82%. Further, the concentration for half-maximal inhibition (IC50) in assay [3] is 19 nM. The IC50 in assay [1] stood at 310 nM.
For the compound `CC(C)CCNC(=O)[C@H]1O[C@@H]1C(=O)O` (relative stereo) [Comparison X, reference compound], the inhibition at 100 µM in assay [2] (setting [5]) was 66%. For the same compound, in assay [2] (setting [6]), the inhibition at 10 µM came to 40%. Moreover, in assay [2] (setting [7]), the inhibition at 1 µM is 25%. Moreover, the IC50 in assay [3] is 78 nM.
Consider `O=C(O)[C@H]1O[C@@H]1C(=O)NCc1ccccc1` (relative stereo) [Comparison Y, reference compound], for which the inhibition at 100 µM in assay [2] (setting [5]) worked out at 44%. Besides, the inhibition at 10 µM in assay [2] (setting [6]) amounted to 38%. In addition, the inhibition at 1 µM in assay [2] (setting [7]) was 21%. For the same compound, the IC50 in assay [3] came to 350 nM.
With `CCCNC(=O)[C@H]1O[C@@H]1C(=O)N[C@H](C(=O)N1CCC[C@H]1C(=O)O)[C@@H](C)CC` [CA-074], the “cathepsin B activity inhibition” value in assay [4] is “completely inhibited”.
